Source: patent US9943506B2, “BCL6 inhibitors as anticancer agents” (Cornell University, priority 2013, dated 2018)
Where two headings read alike, the source gives them in different places.

Legend:
[1] = tested on: Toledo DLBCL cells; test: Growth inhibition of DLBCL cells, Toledo; type: cell-based; conditions: Homo sapiens
Procedure: (§1) 50,000 cells per well were treated for 48 hours with different concentrations of the compounds in 96 well plates, using DMSO as a control. Then, viability was determined with Cell Titer Blue™ (Promega) and growth inhibition was calculated as the percentage of viable cells with respect to cells treated with DMSO alone. GI50 values were determined by dose-response curves.
(§2) 293T cells were grown in Dulbecco's modified Eagles medium supplemented with 10% fetal bovine serum (FBS) (Gemini Bio-Products, Woodland, Calif.) and 1% penicillin-streptomycin. DLBCL cell lines OCI-Ly1, OCI-Ly1-B50, OCI-Ly7, OCI-Ly10 and OCI-Ly19 were grown in 80% Iscove's medium, 20% FBS and penicillin G/streptomycin. DLBCL cell lines Toledo, Farage, SU-DHL4, DOHH-2, SC-1, RCK8, TMD8, HBL-1, Ly3, Karpas 422 and SU-DHL6 were cultured in 90% RPMI medium, 10% FBS, 2 mM glutamine, 10 mM Hepes and penicillin G/streptomycin. All cell lines were cultured at 37° C. in a humidified atmosphere of 5% CO2.

[2] = biological target: BCL6-BTB (Homo sapiens, UniProt P41182); test: MicroScale Thermophoresis binding to BCL6-BTB
Procedure: BCL6 is also required for normal development of germinal center (GC) B-cells.
Recombinant BCL6-BTB was labeled using the RED-NHS Labeling kit (NanoTemper Technologies). […] The label:protein ratio was determined using photometry at 650 nm and Bradford reagent. […] The labeled BCL6-BTB was adjusted to 400 nM with PBS (Thermo) buffer supplemented with 0.05% Tween-80 (Fisher scientific). […] After 10 min incubation, approximately 4 μL of each solution was filled into Monolith NT Standard Treated Capillaries (NanoTemper Technologies GmbH). Thermophoresis was measured using a Monolith NT.115 instrument (NanoTemper Technologies GmbH) at an ambient temperature of 25° C. with 5 s/30 s/5 s laser off/on/off times, respectively. Instrument parameters were adjusted with 90% LED power and 40% MST power. Data of three independent experiments were analyzed (NT.Analysis software version 1.5.41, NanoTemper Technologies) using the signal from Thermophoresis.

[3] = tested on: SUDHL6 DLBCL cells; test: Growth inhibition of DLBCL cells, SUDHL6; type: cell-based; conditions: Homo sapiens, SU-DHL-6
Procedure: as §1, §2

[4] = tested on: Ly7 DLBCL cells; test: Growth inhibition of DLBCL cells, Ly7; type: cell-based
Procedure: as §1, §2

[5] = tested on: Ly3 DLBCL cells; test: Growth inhibition of DLBCL cells, Ly3; type: cell-based
Procedure: as §1, §2

[6] = tested on: Karpas 422 DLBCL cells; test: Growth inhibition of DLBCL cells, Karpas 422; type: cell-based; conditions: Homo sapiens
Procedure: as §1, §2

[7] = tested on: Ly1 DLBCL cells; test: Growth inhibition of DLBCL cells, Ly1; type: cell-based; conditions: Table 4; Bcl6 dependent; read-out: GI 50 Ly1
Procedure: as §1, §2

[8] = tested on: WSU-DLCL2 DLBCL cells; test: Growth inhibition of DLBCL cells, WSU-DLCL2; type: cell-based; conditions: Homo sapiens, WSUDLCL2
Procedure: as §1

[9] = tested on: Ly1B50 DLBCL cells; test: Growth inhibition of DLBCL cells, Ly1B50; type: cell-based; conditions: Table 4; Bcl6 independent; read-out: GI 50 Ly1B50
Procedure: as §1, §2

[10] = Table 4, Bcl6 dependent, read-out: GI 50 Ly3
[11] = Table 4, Bcl6 independent, read-out: GI 50 K422
[12] = Table 4, Bcl6 independent, read-out: GI 50 Toledo
[13] = Table 4, Bcl6 dependent, read-out: GI 50 SUDHL6
[14] = Table 4, Bcl6 independent, read-out: GI 50 WSUDLCL2
[15] = Table 4, Bcl6 dependent, read-out: GI 50 Ly7
[16] = Table 13, BCL6 dependent, read-out: GI50 SUDHL6
[17] = Table 8, Bcl-6 independent, read-out: GI50 Karpas 422
[18] = Table 8, Bcl-6 dependent, read-out: GI50 SUDH6

O=C(CN1C(=O)C(=O)c2cc(Cl)ccc21)OCc1ccsc1 [Compound 367]
GI50 ([1]; Table 10, BCL6 independent): 53 ± 10 µM
Kd ([2]; Table 10): 324 ± 34 µM
GI50 ([3]; Table 10, BCL6 dependent, read-out: GI50 SUDHL6): 15 ± 7 µM
GI50 ([4]; Table 10, BCL6 dependent): 22 ± 4 µM

O=C(O)CCN1C(=O)/C(=C2/C(=O)N(CC(=O)OCc3cccc(C(F)(F)F)c3)c3ccc(Cl)cc32)SC1=S [Compound 380]
GI50 [5, 10]: 71 ± 18 µM
GI50 [6, 11]: 69 ± 4 µM
GI50 [1, 12]: 93 ± 23 µM
GI50 [3, 13]: 18 ± 7 µM
GI50 [7]: 106 ± 20 µM
GI50 [8, 14]: 67 ± 12 µM
GI50 [4, 15]: 94 ± 19 µM
GI50 [9]: 68 µM

O=C(O)CCN1C(=O)/C(=C2/C(=O)N(CC(=O)OCc3ccc(C(F)(F)F)cc3)c3ccc(Cl)cc32)SC1=S [Compound 375]
GI50 [5, 10]: > 125 µM
GI50 [6, 11]: > 125 µM
GI50 [1, 12]: > 125 µM
GI50 [3, 13]: 29 ± 14 µM
GI50 [7]: > 125 µM
GI50 [8, 14]: > 125 µM
GI50 [4, 15]: > 125 µM
GI50 [9]: > 125 µM

O=C(O)CCN1C(=O)/C(=C2/C(=O)N(CC(=O)OCc3ccc(F)cc3)c3ccc(Cl)cc32)SC1=S [Compound 377]
GI50 [5, 10]: > 125 µM
GI50 [6, 11]: > 125 µM
GI50 [1, 12]: > 125 µM
GI50 [3, 13]: 104 µM
GI50 [7]: > 125 µM
GI50 [8, 14]: > 125 µM
GI50 [4, 15]: > 125 µM
GI50 [9]: > 125 µM

CCOc1ccc2[nH]c(SCc3ccccc3)nc2c1 [Compound 1063]
GI50 ([1]; Table 13, BCL6 independent): > 125 µM
Kd ([2]; Table 13): 315 ± 24 µM
GI50 [3, 16]: > 125 µM
GI50 ([4]; Table 13, BCL6 dependent): > 125 µM

O=C(O)CCN1C(=O)/C(=C2/C(=O)N(CC(=O)OCc3ccccc3)c3ccc(F)cc32)SC1=S [Compound 2097]
GI50 ([5]; Table 8, Bcl-6 dependent): > 30 µM
GI50 [6, 17]: > 30 µM
GI50 ([1]; Table 8, Bcl-6 independent): > 30 µM
GI50 [3, 18]: > 30 µM
GI50 ([8]; Table 8, Bcl-6 independent): > 30 µM
GI50 ([4]; Table 8, Bcl-6 dependent): > 30 µM

O=C(O)CCN1C(=O)/C(=C2/C(=O)N(CC(=O)OCc3ccccc3)c3ccc(Cl)cc32)SC1=S [Compound 2099]
GI50 ([5]; Table 8, Bcl-6 dependent): > 30 µM
GI50 [6, 17]: > 30 µM
GI50 ([1]; Table 5, BCL6 independent): 75 µM
GI50 ([1]; Table 8, Bcl-6 independent): > 30 µM
Kd ([2]; Table 5): 5.5 ± 0.7 µM
GI50 ([3]; Table 5, BCL6 dependent, read-out: GI50 SUDHL6): 30 ± 7 µM
GI50 [3, 18]: > 30 µM
GI50 ([8]; Table 8, Bcl-6 independent): > 30 µM
GI50 ([4]; Table 5, BCL6 dependent): 65 µM
GI50 ([4]; Table 8, Bcl-6 dependent): > 30 µM

Clc1ccc2[nH]c(SCc3ccccc3)nc2c1 [Compound 1057]
GI50 ([1]; Table 13, BCL6 independent): > 125 µM
Kd ([2]; Table 13): 87 ± 12 µM
GI50 [3, 16]: > 125 µM
GI50 ([4]; Table 13, BCL6 dependent): > 125 µM

O=[N+]([O-])c1ccc2[nH]c(SCc3ccccc3)nc2c1 [Compound 1061]
GI50 ([1]; Table 13, BCL6 independent): > 125 µM
Kd ([2]; Table 13): 180 ± 36 µM
GI50 [3, 16]: 40 ± 10 µM
GI50 ([4]; Table 13, BCL6 dependent): 60 µM

O=C(CN1C(=O)C(=O)c2cc(F)ccc21)OCc1ccccc1 [Compound 2073]
GI50 ([5]; Table 8, Bcl-6 dependent): > 40 µM
GI50 [6, 17]: > 40 µM
GI50 ([1]; Table 7, BCL6 independent): 40 µM
GI50 ([1]; Table 8, Bcl-6 independent): > 40 µM
GI50 ([3]; Table 7, BCL6 dependent, read-out: GI50 SUDHL6): 30 µM
GI50 [3, 18]: 17 ± 1 µM
GI50 ([8]; Table 8, Bcl-6 independent): > 40 µM
GI50 ([4]; Table 7, BCL6 dependent): 30 µM
GI50 ([4]; Table 8, Bcl-6 dependent): 36 ± 7 µM
